Molecular target: Chlorite dismutase (Cld) (Dechloromonas aromatica (nom. nud.), UniProt Q47CX0)
Assay: UV/vis Soret titration, hyperbolic fit
Assay type: binding

Chain of Chlorite dismutase (Cld) (Q47CX0 35-282): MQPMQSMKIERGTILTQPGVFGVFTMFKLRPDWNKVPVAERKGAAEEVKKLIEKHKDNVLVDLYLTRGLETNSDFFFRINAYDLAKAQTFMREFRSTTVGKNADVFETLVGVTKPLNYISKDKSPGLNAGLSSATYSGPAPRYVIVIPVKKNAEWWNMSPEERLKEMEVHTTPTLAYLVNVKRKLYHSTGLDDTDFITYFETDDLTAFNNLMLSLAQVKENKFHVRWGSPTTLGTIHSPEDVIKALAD

Compound	Kd
c1c[nH]cn1 [Imidazole]	7.6 ± 0.2 µM
N#CS [KSCN]	74 ± 2 µM
O=NO [NaNO2]	770 ± 30 µM
c1ccncc1 [Pyridine]	553 ± 8 µM

Source: PMC3050645 (Journal of the American Chemical Society, 2010)
